# Assays:
# [1] = test system: concanavalin A-induced dry eye in rabbits; assay: Concanavalin A (Con A)-induced dry eye disease (DED) model in rabbits: TBUT, Schirmer test, tear osmolarity, tear lactoferrin; assay type: in vivo, rabbit
# Procedure: To assess the efficacy of PS on DED an improved concanavalin A model was used. In the concanavalin A model, dry eye is induced by injecting the lacrimal glands of a mammal with concanavalin A, a selective T cell mitogen that induces a lymphocytic infiltrate in these glands. The concanavalin A model is generally described in (Barabino S. Animal models of dry eye. Arch Soc Esp Oftalmol. 2005; 80(12):693-4). Concanavalin A was injected to the lacrimal glands under ultrasound guidance, thus eliminating injections to the vicinity of the gland (as opposed to the gland itself). The head and the tail of the major lacrimal gland of the rabbit were injected separately. The dose of concanavalin A was optimized for DED signs.
# In the testing described below, four markers of DED are monitored: the tear break up time (TBUT), the Schirmer test, tear osmolarity, and tear lactoferrin levels. All assays were performed at the same clock time (±1 hr) to avoid assay variability on account of circadian variations.
# In an efficacy experiment using the concanavalin A model, one group of rabbits was treated with compound 5, also known as phosphosulindac and abbreviated as PS, 1.5% eye drops and one group with vehicle. […] It is thus clear that PS applied topically suppresses DED.
# Con A was injected under ultrasound guidance into all the lacrimal glands and the success of the injection was verified by a post-injection ultrasound image (see FIG. 1 and FIG. 2). […] This variation explains why the blind injections recommended in the original method are often unsuccessful. This was confirmed by mixing the Con A solution with methylene blue and tracking its course after injection. In about ⅓ of the cases, Con A ended up outside the gland.
# Four parameters of efficacy were evaluated instead of the usual one or two. They include (a) the tear break up time (TBUT), determined using 0.2% fluorescein over the eye and recording the time taken to develop black dots, lines or obvious disruption of the fluorescein film; (b) tear osmolarity, measured using TearLab Osmolarity Test and following the manufacturer's instructions (TearLab Corp., San Diego, Calif.); (3) Schirmer tear test (STT), determined using Schirmer strips (EagleVision, Denville, N.J.) inserted between the cornea and the palpebral conjunctiva at the mid-point of the lower lid and measuring the length of moistened strip at 5 min; and (4) tear lactoferrin levels measured by ELISA kit (MyBiosource, San Diego, Calif.) following the instructions of the manufacturer. All four have been used in clinical practice and correlate with the clinical activity of the disease. The STT is the least reliable and, as result, it is clinically used less than half as frequently as TBUT.
# The injections of Con A to the lacrimal glands were repeated weekly as needed. When longer than a 1-week periods of study are needed, repeat injections prolong dry eye for at least 3 weeks, making the originally acute model chronic.
# PS Suppresses Con A—Induced Dry Eye in Rabbits. The effect of PS on dry eye was determined in New Zealand White (NZW) rabbits, 2-3 kg (Charles River Labs, Waltham, Mass.). These rabbits were housed singly in rooms with strict temperature (70±5° F.) and humidity (45±5%) control and acclimated for at least 2 weeks prior to induction of dry eye by injection of Con A as above. NZW rabbits with Con A-induced dry eye (three sets of injections) were treated with PS formulated as nanoparticles and administered topically as eye drops 3×/day for 21 days, starting on the day of Con A injection. […] Similar results were obtained on days 5 and 14 (data not shown).
# Using this model, we compared the effect of PS to that of cyclosporine and lifitegrast. Rabbits were treated for 6 days with PS as above or cyclosporine 0.05% or lifitegrast 5% eye drops 3×/day. In addition to determining TUBT, osmolarity and STT, we measured the levels of IL-8 and IL-1β in the ILGs of the rabbits harvested at euthanasia. […]
# [2] = test system: cornea of New Zealand white rabbits; assay: Corneal touch threshold (CTT), Cochet-Bonnet aesthesiometer; assay type: in vivo, rabbit
# Procedure: The analgesic effect of PS was determined by measuring the corneal touch threshold (CTT) using the Luneau Cochet-Bonnet Aeshesiometer (Western Ophthalmics, Lynwood, Wash.), an adjustable nylon monofilament with a defined diameter, which is applied in different lengths to the center of the cornea. This device is generally described in Lima L, Lange R R, Turner-Giannico A, Montiani-Ferreira F. Evaluation of standardized endodontic paper point tear test in New Zealand white rabbits and comparison between corneal sensitivity followed tear tests. Vet Ophthalmol. 2015; 18 Suppl 1:119-24.
# A stimulus produced by the filament that reaches the CTT induces a corneal reflex, consisting of prompt eyelid closure. The CTT is quantified as centimeter length of the filament necessary to cause the blink reflex.
# The CTT is determined before (baseline) and at various time points after the application of the test compound (PS). PS was formulated either in β-cyclodextrin (42 or 8 mg/ml) or in a nanocarrier (19 mg/ml). The test drug was formulated in a nanocarrier by the emulsion and evaporation method (Vauthier C, Bouchemal K. Methods for the Preparation and Manufacture of Polymeric Nanoparticles. Pharmaceutical Research; 2009; 26:1025-1058). The formulated stable drug suspension consisted of polylactic acid and polyethylene glycol (PLLA(10k)-PEG(2k)); sodium cholate; and PS. The vehicle control was either β-cyclodextrin or the nanocarrier without PS. Commercially available lidocaine 1% was used as a positive control.
# To each eye of adult New Zealand white rabbits was applied […] drops of PS or vehicle or lidocaine, with 5 minutes between each drop. The time of the last drop was taken as the 0 time.
# The analgesic effect of PS was further examined on the surface of the eye by determining the corneal touch threshold (CTT) using the Luneau Cochet-Bonnet Aesthesiometer (Western Ophthalmics, Lynwood, Wash.) an adjustable nylon monofilament with a defined diameter, which is applied in different lengths to the center of the cornea.
# [3] = Baseline, PS 1.5% eye drops, Mean ± SEM
# [4] = Con A DED rabbits, 6 days, eye drops 3×/day, PS nanoparticles, cyclosporine 0.05%, lifitegrast 5%, mean ± SEM
# [5] = Day 13, PS 1.5% eye drops, Mean ± SEM
# [6] = after 1 week of treatment, FIG. 5
structure (smiles),measurement,setting,value
"CCOP(=O)(OCC)OCCCCOC(=O)CC1=C(C)/C(=C/c2ccc([S+](C)[O-])cc2)c2ccc(F)cc21 (centres unmarked) [PS, phosphosulindac]",Schirmer test,[1]; [3],14.6 ± 0.9 mm
same,TBUT,[1]; [3],52.3 ± 4.6 s
same,Tear lactoferrin,[1]; [3],3.09 ± 0.4 ng/mg protein
same,Osmolarity,[1]; [4],294 ± 4.6 mOsm/L
same,STT,[1]; [4],12.3 ± 0.6 mm
same,TBUT,[1]; [4],43.6 ± 4.0 s
same,Schirmer test,"[1]; Day 11, PS 1.5% eye drops, Mean ± SEM",9.5 ± 1.0 mm
same,TBUT,[1]; [5],56.0 ± 4.0 s
same,Tear lactoferrin,[1]; [5],3.19 ± 0.2 ng/mg protein
same,"TBUT, tear osmolarity and tear lactoferrin levels","[1]; PS nanoparticles eye drops 3×/day for 21 days, FIG. 4",restored to normal
same,STT value,"[1]; PS nanoparticles eye drops 3×/day for 21 days, difference from vehicle significant only for trend, FIG. 4",improved
same,STT,[1]; [6],no significant effect
same,TBUT and osmolarity,[1]; [6],normalized
same,Corneal touch threshold (CTT),"[2]; PS 8 mg/ml in β-cyclodextrin, 1 min",5.3 ± 0.7 centimeter
same,Corneal touch threshold (CTT),"[2]; PS 8 mg/ml in β-cyclodextrin, 5 min",5.4 ± 0.8 centimeter
same,Corneal touch threshold (CTT),"[2]; PS 8 mg/ml in β-cyclodextrin, 10 min",5.6 ± 0.5 centimeter
same,Corneal touch threshold (CTT),"[2]; PS 8 mg/ml in β-cyclodextrin, 20 min",5.6 ± 0.5 centimeter
same,Corneal touch threshold (CTT),"[2]; PS 8 mg/ml in β-cyclodextrin, 30 min",5.9 ± 0.3 centimeter
same,Corneal touch threshold (CTT),"[2]; PS 8 mg/ml in β-cyclodextrin, 45 min",5.9 ± 0.3 centimeter
same,Corneal touch threshold (CTT),"[2]; PS 8 mg/ml in β-cyclodextrin, 60 min",5.9 ± 0.3 centimeter
same,Corneal touch threshold (CTT),"[2]; PS 8 mg/ml in β-cyclodextrin, baseline",5.9 ± 0.3 centimeter
same,Corneal touch threshold (CTT),"[2]; PS 19 mg/ml in nanocarrier, 1 min",5.4 ± 0.6 centimeter
same,Corneal touch threshold (CTT),"[2]; PS 19 mg/ml in nanocarrier, 5 min",5.1 ± 0.8 centimeter
same,Corneal touch threshold (CTT),"[2]; PS 19 mg/ml in nanocarrier, 10 min",5.3 ± 0.8 centimeter
same,Corneal touch threshold (CTT),"[2]; PS 19 mg/ml in nanocarrier, 20 min",5.5 ± 0.7 centimeter
same,Corneal touch threshold (CTT),"[2]; PS 19 mg/ml in nanocarrier, 30 min",5.9 ± 0.2 centimeter
same,Corneal touch threshold (CTT),"[2]; PS 19 mg/ml in nanocarrier, 45 min",5.9 ± 0.4 centimeter
same,Corneal touch threshold (CTT),"[2]; PS 19 mg/ml in nanocarrier, 60 min",5.9 ± 0.2 centimeter
same,Corneal touch threshold (CTT),"[2]; PS 19 mg/ml in nanocarrier, baseline",5.9 ± 0.3 centimeter
same,Corneal touch threshold (CTT),"[2]; PS 42 mg/ml in β-cyclodextrin, 1 min",2.7 ± 1.0 centimeter
same,Corneal touch threshold (CTT),"[2]; PS 42 mg/ml in β-cyclodextrin, 5 min",3.1 ± 1.2 centimeter
same,Corneal touch threshold (CTT),"[2]; PS 42 mg/ml in β-cyclodextrin, 10 min",3.7 ± 1.3 centimeter
same,Corneal touch threshold (CTT),"[2]; PS 42 mg/ml in β-cyclodextrin, 20 min",4.1 ± 1.4 centimeter
same,Corneal touch threshold (CTT),"[2]; PS 42 mg/ml in β-cyclodextrin, 30 min",5.1 ± 1.0 centimeter
same,Corneal touch threshold (CTT),"[2]; PS 42 mg/ml in β-cyclodextrin, 45 min",5.6 ± 0.7 centimeter
same,Corneal touch threshold (CTT),"[2]; PS 42 mg/ml in β-cyclodextrin, 60 min",5.9 ± 0.2 centimeter
same,Corneal touch threshold (CTT),"[2]; PS 42 mg/ml in β-cyclodextrin, baseline",5.9 ± 0.2 centimeter
same,analgesia (CTT),"[2]; single eye drop, naïve rabbits, FIG. 10",essentially instantaneous and significant analgesia

# From patent publication US11510931B2, “Compositions and methods for treating ophthalmic conditions” (MEDICON PHARMACEUTICALS, INC., priority 2016, dated 2022)
